Measurements as given in publication PMC11494455 (Nature chemical biology, 2022).

Molecular target: THP4.1 biosensor (Salmonella typhimurium, UniProt Q8ZR43)
Test: Dose response and ligand response of the THP4.1 biosensor
Type: cell-based
Conditions: pThpR reporter

Sequence of THP4.1 biosensor (Q8ZR43 whole entry): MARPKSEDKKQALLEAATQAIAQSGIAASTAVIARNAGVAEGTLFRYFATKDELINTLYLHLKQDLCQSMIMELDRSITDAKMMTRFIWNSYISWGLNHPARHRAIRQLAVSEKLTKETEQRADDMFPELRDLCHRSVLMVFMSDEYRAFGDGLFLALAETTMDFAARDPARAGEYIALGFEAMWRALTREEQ

COc1ccc(C[C@@H]2NCCc3cc(OC)c(O)cc32)cc1O [norreticuline]
responsiveness of THP4.1: somewhat responsive
